Assays:
[1] = target: T1, isolated wild type TTR (Homo sapiens, UniProt P02766); assay: Displacement of 125I-T4 from isolated wild type TTR in buffer; conditions: concentration of ligand reducing binding of 125I-T4 by TTR by 50%; 125 nM TTR, pH 8.0, overnight 4° C.; mean of at least 3 replicates; read-out: D50 buffer
T1 construct: the non-covalently associated protomers, of mass 13,761, each contain 127 residues; His6 (N); TEV cleavage site (N); made in house; host or cells: E. coli BL21 (DE3)
Procedure: 3. Evaluation of Ligand Activity Based on Capacity to Displace ^125I-Thyroxine (T4) from TTR in Buffer/Human Plasma 3.1 Displacement of ^125I-T4 from Isolated Wild Type TR.
Competition of ligands with T4 for binding by TTR was assayed quantitatively by a previously described procedure (Kolstoe et al., 2010). Briefly, a solution of 125 nM TTR in 0.1 M Tris-HCl, 0.1 M NaCl and 0.001 M EDTA buffer, pH 8.0, was incubated overnight at 4° C. in the presence of 1.07 nM ^125I T4 (1,200 μCi/μg, 200 μCi/ml, Perkin Elmer) and increasing concentrations of inhibitor (0-5 μM) in 40 μl final volume. ^125I T4 bound by TTR was separated from unbound T4 by gel filtration chromatography using Micro Bio Spin 6 columns (Bio-Rad) previously equilibrated with the reaction buffer containing 1% w/v BSA. After counting with a Wizard2 gamma counter (Perkin-Elmer) for 60 s, percentage binding was plotted against the logarithm of the inhibitor concentration, and D50 (concentration of ligand reducing the binding of T4 by TTR by 50%) was determined using a four parameters dose-response curve with GraphPad Prism 5 (Table 1).

[2] = target: T2, TTR in whole human plasma (Homo sapiens, UniProt P02766); assay: Displacement of 125I-T4 from TTR in normal human plasma; assay type: binding; conditions: wild type TTR, 30 min 37° C. with ligand, immunoprecipitation, mean of at least 3 replicates, read-out: D50 plasma
T2 construct: TTR in whole plasma, from individuals homozygous for wild type TTR; from tissue; host or cells: whole human plasma
Procedure: 3.2 Displacement of ^125-T4 from TTR in Normal Human Plasma.
The displacement of ^125I-T4 from TTR in whole plasma, from individuals homozygous for wild type TTR, was studied by incubating plasma with each ligand at increasing concentrations for 30 min at 37° C., further incubation with […] followed by measurement of the radioactivity in the immunoprecipitate obtained with anti-TTR antibodies. […] Percentage binding was plotted against the logarithm of the inhibitor concentration, and D50 (concentration of ligand reducing the binding of T4 by TTR by 50%) was determined using a four parameter dose-response curve with GraphPad Prism 5 (Table 1).

[3] = target: T3, recombinant Val122Ile TTR (Homo sapiens, UniProt P02766, V142I); assay: Mechano-enzymatic fibrillogenesis, TTR aggregation by turbidity at 400 nm; assay type: biochemical; conditions: equimolar ligand, Val122Ile TTR 9 μM, trypsin, 96 h, 100 % = protein without ligand, mean (SD)
T3 construct: the non-covalently associated protomers, of mass 13,761, each contain 127 residues; His6 (N); TEV cleavage site (N); made in house; host or cells: E. coli BL21 (DE3)
Procedure: (§1) Briefly, fibrillogenesis of recombinant Val122Ile TTR at 0.5 mg/ml (9 μM) in PBS, pH 7.4 was carried out in glass vials stirred at 1,400 rpm (IKA magnetic stirrer) and 37° C. in the presence and in the absence of trypsin (5 ng/μl). […] Each ligand was tested at 4 different concentrations (4.5, 9, 18, 36 μM respectively) corresponding to the following drug/TTR molar ratios of 0.5:1, 1:1, 2:1 and 4:1. Several dilutions of the drug stock solutions were made in order to add the same volume of DMSO to each sample. Control samples without drug were added with the same volume of DMSO only. To allow complete binding of ligand by TTR each sample was incubated for 30 min at 37° C. before addition of trypsin. Spectrophotometric turbidity at 400 nm was used to monitor fibril formation over time until it reached a plateau at 96 h. Aggregation of TTR in the presence of equimolar ligand concentrations was quantified as spectrophotometric turbidity at 400 nm as a proportion of 100% for aggregation of the protein in the absence of ligands (Table 2).

[4] = target: T3, recombinant Val122Ile TTR; assay: Mechano-enzymatic fibrillogenesis, TTR amyloid by ThT emission fluorescence; assay type: biochemical; conditions: equimolar ligand, 96 h pellets, normalized to 100 % without ligand, mean (SD)
Procedure: as §1
At the end of the 96 h aggregation, pellets were harvested from each protein sample by 20 min centrifugation at 11,600 g, thoroughly rinsed with PBS to remove non-bound ligand, resuspended with 100 μl PBS, pH 7.4 containing 10 μM ThT in Costar 96-well black-wall plates. Bottom fluorescence values (excitation 440 nm, emission 480 nm) were recorded using a BMG LABTECH FLUostar Omega plate reader. Each value was normalized to the ThT signal of the TTR sample without ligand (Table 2)

[5] = target: T4, native recombinant wild type TTR (Homo sapiens, UniProt P02766); assay: Kinetics of ligand binding by TTR (stopped flow quenching of intrinsic fluorescence); conditions: TTR 1 μM with equimolar ligand, 37° C., PBS pH 7.4; t½ = ln 2/k
T4 construct: the non-covalently associated protomers, of mass 13,761, each contain 127 residues; His6 (N); TEV cleavage site (N); made in house; host or cells: E. coli BL21 (DE3)
Procedure: Ligand binding by native TTR quenches the intrinsic fluorescence of the protein. After mixing of ligands with TTR in solution, monitoring emission of the intrinsic fluorescence over time defines the rate at which the ligand is bound by the protein. The fast phase of these binding kinetics was characterized using an SFM 3000 stopped flow device coupled to a MOS500 spectrometer with a fluorescence detection system (Bio Logic, Claix, France) and a cell path length of 1.5 mm. TTR and ligands at 37° C. were mixed at final concentrations of 1 μM each in PBS pH 7.4 containing 0.9% v/v DMSO, and were excited at 280 nm for measurement of total fluorescence emission over 325 nm using a cut off filter. Kinetic data were acquired as the average of at least 3 experimental mixings and fitted to a first order reaction using the general formula y(t)=at +b+C exp (−kt), where y(t) is the observed fluorescence, a (slope) and b (offset) corresponding to the baseline. C and k are, respectively, amplitude and rate constant of the observed fluorescence change. Data were analysed using the Biokine software and values of half-life time (t½) correspond to ln 2/k. (Table 3).

Compound: O=C(O)CCc1ccc(OCCCOCCCOc2c(Cl)cc(-c3nc4ccc(C(=O)O)cc4o3)cc2Cl)c(Cl)c1 [Compound B19, 2-[4-[3-[3-[4-(2-carboxyethyl)-2-chloro-phenoxy]propoxy]propoxy]-3,5-dichloro-phenyl]-1,3-benzoxazole-6-carboxylic acid]
- IC50 [1]: 160 nM
- IC50 [2]: > 100000 nM
- % Aggregation (Turbidity method) [3]: 3.99 (0.928) %
- % Aggregation (Fluorescence method) [4]: 7.27 (1.17) %

Compound: O=C(O)CCc1cc(Cl)c(OCCCOCCOc2c(Cl)cc(Nc3cnncc3C(=O)O)cc2Cl)c(Cl)c1 [Compound B24, 5-[4-[2-[3-[4-(2-carboxyethyl)-2,6-dichloro-phenoxy]propoxy]ethoxy]-3,5-dichloro-anilino]pyridazine-4-carboxylic acid]
- IC50 [1]: 140 nM
- IC50 [2]: 7600 nM
- % Aggregation (Turbidity method) [3]: 6.60 (2.40) %
- % Aggregation (Fluorescence method) [4]: 10.6 (10.5) %

Compound: O=C(O)CCc1cc(Cl)c(OCCCOCCCOc2ccc(-c3nc4ccc(C(=O)O)cc4o3)cc2Cl)c(Cl)c1 [Compound B15, 2-[4-[3-[3-[4-(2-carboxyethyl)-2,6-dichloro-phenoxy]propoxy]propoxy]-3-chlorophenyl]-1,3-benzoxazole-6-carboxylic acid]
- IC50 [1]: 100 nM
- IC50 [2]: 61000 nM
- % Aggregation (Turbidity method) [3]: 5.56 (0.75) %
- % Aggregation (Fluorescence method) [4]: 12.7 (5.73) %

Compound: O=C(O)CCc1cc(Cl)c(OCC[C@@H](O)[C@H](O)CCOc2c(Cl)cc(Nc3ncccc3C(=O)O)cc2Cl)c(Cl)c1 [Compound B3, 2-[4-[(3R,4R)-6-[4-(2-carboxyethyl)-2,6-dichloro-phenoxy]-3,4-dihydroxy-hexoxy]-3,5-dichloro-anilino]pyridine-3-carboxylic acid]
- IC50 [1]: 70 nM
- IC50 [2]: 1700 nM
- % Aggregation (Turbidity method) ([3]; listed as T-663 (B3)): 5.11 (1.58) %
- % Aggregation (Fluorescence method) ([4]; listed as T-663 (B3)): 4.49 (2.08) %

Compound: O=C(O)CCc1cc(Cl)c(OCC[C@@H](O)[C@H](O)CCOc2c(Cl)cc(-c3nc4ccc(C(=O)O)cc4o3)cc2Cl)c(Cl)c1 [Compound B16, 2-[4-[(3R,4R)-6-[4-(2-carboxyethyl)-2,6-dichloro-phenoxy]-3,4-dihydroxy-hexoxy]-3,5-dichloro-phenyl]-1,3-benzoxazole-6-carboxylic acid]
- IC50 [1]: 90 nM
- IC50 [2]: 14100 nM
- % Aggregation (Turbidity method) [3]: 4.42 (1.45) %
- % Aggregation (Fluorescence method) [4]: 4.76 (3.13) %
- T 1/2 [5]: 1.415 s

Compound: O=C(O)CCc1ccc(OCC[C@@H](O)[C@H](O)CCOc2ccc(Nc3ccccc3C(=O)O)cc2Cl)c(Cl)c1 [Compound B22, 2-[4-[(3R,4R)-6-[4-(2-carboxyethyl)-2-chloro-phenoxy]-3,4-dihydroxy-hexoxy]-3-chloro-anilino]benzoic acid]
- IC50 [1]: 70 nM
- IC50 [2]: 6400 nM
- % Aggregation (Turbidity method) [3]: 6.43 (2.12) %
- % Aggregation (Fluorescence method) [4]: 15.5 (3.25) %

Compound: O=C(O)CCc1cc(Cl)c(OCC[C@@H](O)[C@H](O)CCOc2c(Cl)cc(Nc3ccccc3C(=O)O)cc2Cl)c(Cl)c1 [Compound B4A, 2-[4-[(3R,4R)-6-[4-(2-carboxyethyl)-2,6-dichloro-phenoxy]-3,4-dihydroxy-hexoxy]-3,5-dichloro-anilino]benzoicacid]
- IC50 [1]: 66 nM
- IC50 [2]: 2300 nM
- % Aggregation (Turbidity method) [3]: 4.99 (0.46) %
- % Aggregation (Fluorescence method) [4]: 3.30 (1.19) %

Compound: O=C(O)CCc1ccc(OCC[C@@H](O)[C@H](O)CCOc2c(Cl)cc(Nc3ccccc3C(=O)O)cc2Cl)c(Cl)c1 [Compound B21, 2-[4-[6-[4-(2-carboxyethyl)-2-chloro-phenoxy]-3,4-dihydroxy-hexoxy]-3,5-dichloro-anilino]benzoic acid]
- IC50 [1]: 70 nM
- IC50 [2]: 4100 nM
- % Aggregation (Turbidity method) [3]: 6.43 (3.09) %
- % Aggregation (Fluorescence method) [4]: 8.31 (6.09) %

Compound: O=C(O)CCc1cc(Cl)c(OCCCOCCCOc2c(Cl)cc(-c3nc4ccc(C(=O)O)cc4o3)cc2Cl)c(Cl)c1 [Compound B7, 2-[4-[3-[3-[4-(2-carboxyethyl)-2,6-dichloro-phenoxy]propoxy]propoxy]-3,5-dichloro-phenyl]-1,3-benzoxazole-6-carboxylicacid]
- IC50 [1]: 100 nM
- IC50 [2]: 18400 nM
- % Aggregation (Turbidity method) [3]: 4.99 (1.88) %
- % Aggregation (Fluorescence method) [4]: 8.23 (2.61) %

Compound: O=C(O)CCc1ccc(OCCCOCCCOc2ccc(-c3nc4ccc(C(=O)O)cc4o3)cc2Cl)c(Cl)c1 [Compound B18, 2-[4-[3-[3-[4-(2-carboxyethyl)-2-chloro-phenoxy]propoxy]propoxy]-3-chloro-phenyl]-1,3-benzoxazole-6-carboxylic acid]
- IC50 [1]: 210 nM
- IC50 [2]: > 100000 nM
- % Aggregation (Turbidity method) [3]: 3.31 (0.68) %
- % Aggregation (Fluorescence method) [4]: 2.45 (1.39) %

Compound: O=C(O)CCc1cc(Cl)c(OCCOCCCOc2c(Cl)cc(-c3nc4ccc(C(=O)O)cc4o3)cc2Cl)c(Cl)c1 [Compound B29, 2-[4-[3-[2-[4-(2-carboxyethyl)-2,6-dichloro-phenoxy]ethoxy]propoxy]-3,5-dichloro-phenyl]-1,3-benzoxazole-6-carboxylic acid]
- IC50 [1]: 80 nM
- IC50 [2]: 3600 nM
- % Aggregation (Turbidity method) [3]: 7.62 (3.39) %
- % Aggregation (Fluorescence method) [4]: 19.2 (13.0) %

Reference: patent publication US20230357134A1, “AGENTS FOR USE IN THE TREATMENT OF AMYLOIDOSIS” (UCL BUSINESS LTD, priority 2020, published 2023)
